The subject of series [1] is glutamate levels. Kind of series: Glutamate levels (ELISA) in PTZ-induced acute seizure. The series is classed as in vivo, rats. Conditions: cortex and hippocampus, p<0.01. The source says:
Glutamate levels were also estimated in cortex and hippocampus following the administration of Z-acid formulation I. The glutamate levels were estimated using ELISA kit method (Bioassay Technology Laboratory, E1474Ra).

Series [2] concerns Cfos. As to the kind of experiment: Cfos gene expression (qRT-PCR) in PTZ-induced acute seizure. The series is classed as in vivo, rats. The settings on record: cortex and hippocampus, p<0.01. The source says:
(§1) Rats were decapitated after recording the EEG to collect the brain samples. Cortex and hippocampus regions of brain were excised out to conduct analysis of gene expression using qRT-PCR. The tissue samples were processed for RNA isolation followed by synthesis of cDNA using Revert Aid First strand cDNA synthesis kit (Thermo Scientific). The template cDNA were then used for the amplification of BDNF and Cfos using SYBER green qPCR Master mix (Thermo Scientific). The relative gene expression was determined by comparing 2-ΔΔCt values normalized to β-actin.
Background: In qPCR the cycle at which signal appears reflects the starting amount.

Series [3] has as its system PTZ-induced epileptiform activity. As to the kind of experiment: PTZ-induced epileptiform activity, intraperitoneal administration (EEG protocol). The series is classed as in vivo, rats. Conditions: for spike discharge: Z-acid 150 mg/kg i.p. or diazepam 5 mg/kg, 10 min after PTZ 100 mg/kg, vs PTZ-injected animals, P<0.01. As for the experimental part: In this set of experiment, effect of Z-acid was investigated on PTZ-induced epileptiform activity. Rats (210±10 g) were divided into six groups as control, diazepam, Z-acid, PTZ, PTZ+diazepam, PTZ+Z-acid with 6 sample size in each group. PTZ was injected at the dose of 100 mg/kg. Z-acid was intraperitoneally injected in anesthetized rats at the dose of 150 mg/kg whereas drug control group was treated with 5 mg/kg dose of diazepam. Saline was used as placebo. PTZ was prepared in saline whereas Z-acid was dissolved in 0.1 N NaOH. EEG was recorded from cortical region of the rat brain.
The protocol was started by anesthetizing rat followed by fixing the animal in stereotaxic apparatus for surgery. The skin was removed to expose the bregma and lambda region of the skull. Three holes of 0.6 mm diameter were drilled with the help of a manual drill. One hole was made on the parietal lobe for the placement of active electrode whereas two were made on the occipital lobes for reference and ground electrodes. A screw with the length of 5 mm and diameter of 0.5 mm was inserted on each hole and electrodes were then connected with the EEG recording system. The recording was started by monitoring the baseline EEG recording for 5 min. After 5 min of noise-free recording, PTZ was injected to induce acute seizures. The EEG recording after the injection of PTZ was continued for 10 min to observe the induction of epileptiform activity. […] After 10 min of recording, Z-acid was injected intraperitoneally to observe its effects on PTZ-induced epileptiform activity.

The subject of series [4] is BDNF. As to the kind of experiment: BDNF gene expression (qRT-PCR) in PTZ-induced acute seizure. The settings on record: cortex and hippocampus, p<0.01. The series is classed as in vivo, rats.
Excerpt: as §1

Series [5] concerns PTZ-induced kindling. As to the kind of experiment: scPTZ-induced chemical kindling model of epileptogenesis. The series is classed as in vivo, NMRI mice. As for the experimental part:
The chemical kindling was induced according to the modified method of De Sarro i.e. by repeated treatment of mice with sub-convulsive dose of pentylenetetrazole (subcutaneous, 50 mg/kg) on alternate days. Four doses of Z-acid (150 mg/kg/day, 200 mg/kg/day, 250 mg/kg/day, and 300 mg/kg/day) were administered daily (intraperitoneal). However, on the day of PTZ administration, animals were treated with the Z-acid 30 minutes before administering PTZ. After PTZ was injected, each animal was placed separately in a clear plexiglass cage for close observations for 1 hour. The drug control groups received daily valproic acid. The Racine scoring categorization of epileptic seizures pattern was used to monitor the animals (Table 1). The animals showing score 4-5 were considered to be fully kindled. The cumulative kindling score was then calculated. Experiments were terminated once the animals were fully kindled. At the end of each experiment, animals were humanely sacrificed.

Series [6] in a line: Solubility in water. The format is physicochemical.
Series [7] in a line: Stability. The format is physicochemical.
The nature of series [8]: Pharmacokinetics in plasma and brain after single intraperitoneal dose (GC/MS). The format is in vivo. The settings on record: mice, 300 mg/kg intraperitoneal. As for the experimental part:
The pharmacokinetics of Z-acid in both plasma and brain after a single intraperitoneal dose of Z-acid (300 mg/kg) was studied in mice. Animals were sacrificed at 5 min, 15 min, 30 min, 60 min, 120 min, 180 min, and 240 min after the dose administration (n=4 for each time point). Blood samples were obtained in heparin containing vacutainers. The control group consists of the animals receiving no other treatment and this serve as blank plasma and aided in optimization and validation of the GC/MS method. The blood samples were later centrifuged to obtain plasma which was stored at −20° C. for further processing. Likewise, the brain samples were also collected from the sacrificed animals and stored at −20° C. for further processing on GC-MS.

A short description of series [9]: Sub-chronic toxicity profile, intraperitoneal, 3 months. The series is classed as in vivo. As for the experimental part: To evaluate the sub-chronic toxicity profile of Z-acid the compound was administered daily into mice at the dose of 300 mg/kg (intraperitoneal) for a period of 3 months. The animals were divided into […] (8 per group) as outlined below: • Group I normal control; • Group II treated daily for 1 week; • Group III treated daily for 2 weeks; • Group IV treated daily for 1 month; • Group V treated daily for 2 months; • Group VI treated daily for 3 months
At the end of the study, animals were anaesthetized, dissected and gross examination of vital organs were performed, along with serum and whole brain samples collection. Serum and brain sample were stored in −20° C. for further examination.

The subject of series [10] is PTZ-induced seizures. Kind of series: Acute subcutaneous PTZ-induced seizure test. The series is classed as in vivo, mice. As for the experimental part:
Anticonvulsant effects of the test compounds were evaluated using subcutaneous PTZ-induced seizure test (subcutaneous PTZ). […] The Z-acid and its analogs were administered intraperitoneally at least 30 min before subcutaneous administration of convulsive dose of PTZ (110 mg/kg). […] Latency to PTZ-induced threshold seizures was also calculated. The latency to threshold seizure is defined as the interval between the time of the PTZ-injection and the occurrence of first episode of threshold seizure. Protection of testing material against PTZ-induced mortality within 24 hours was also evaluated. […] NMRI male mice weighing between 18-22 g were selected for the study. PTZ 110 mg/Kg was administered to the PTZ group and observed the first myoclonic jerk and HLTE.

The mark [11] stands for this setting: intraperitoneal experiment, vs PTZ alone.
Setting [12] is: intranasal pre-treatment (Formulation I), vs PTZ.
[13] abbreviates: 150 mg/kg intraperitoneal, 10 min after PTZ.
Setting [14] is: 300, 400 and 500 mg/Kg intraperitoneal, 30 min before PTZ 110 mg/Kg, compared to PTZ group.

“Also recorded” adds a separate entry of the source.

Consider `CN1C(=O)CN=C(c2ccccc2)c2cc(Cl)ccc21` [diazepam, reference compound], for which the glutamate levels result in [1] (setting [11]) was “significantly reduced”. The Cfos gene expression result in series [2] (i.p. treatment, vs PTZ alone) is given as “significantly reduced”. In series [3], the spike discharge result is recorded as “significantly reduced”. In series [4] (i.p. treatment, vs PTZ alone), the BDNF gene expression result is “significantly reduced”.
Consider `CCCC(CCC)C(=O)O` [valproic acid, reference compound], for which, in series [5] (drug control, daily, compared to PTZ-kindled control group), the “seizure pattern till the end of the kindling protocol” value is given as “did not exhibit any seizure pattern”.
`CC1=CC(=CC(=O)O)CC(C)(C)C1` (single isomer, unassigned) [E/Z isomeric mixture, (E/Z)-2,2′-(3,5,5-trimethyl-2-cyclohexen-1-ylidene) acetic acid]: in series [6], the solubility in water entry is listed as “poorly soluble”.
With `CC1=C/C(=C\C(=O)O)CC(C)(C)C1` [Z-acid, (Z)-2-(3,5,5-trimethyl-2-cyclohexen-1-ylidene) acetic acid], the glutamate levels result in [1] (intranasal experiment (Formulation I), vs PTZ) is reported as “significantly reduced”. For the same molecule, the glutamate levels entry in [1] (setting [11]) is “significantly reduced”. Also, the “stability under all conditions used in various experiments” value in [7] is on record as “stable”. Also, in series [7] (room temperature and high temperature), the “stability in different organic solvents” value was “stable”. Also, in series [2] (i.p. treatment, vs PTZ alone), the Cfos gene expression entry was “significantly reduced”. In addition, the Cfos gene expression entry in series [2] (setting [12]) is reported as “significantly reduced”. Besides, the “development of kindling induced by scPTZ administration” value in [5] (300 mg/kg daily intraperitoneal, PTZ 50 mg/kg on alternate days) is on record as “complete inhibition”. Moreover, the “active dose able to inhibit the process of epileptogenesis” value in series [5] (daily intraperitoneal, doses tested 150-300 mg/kg/day) was 300 mg/kg body weight. In addition, in series [3] (setting [13]), the “time after administration at which PTZ-induced spikes were significantly reduced” value was 5 min and the “time after treatment at which PTZ-induced spikes completely diminished” value was in the range of 7 to 10 min. Besides, the spike discharge entry in series [3] is given as “significantly reduced”. Besides, in [8] (brain), the “persistence or sequestration in brain” value is “No evidence”, the “time to disappearance from brain” value is at most 1 h and the “time to peak concentration in brain” value was at most 15 min. In series [8] (plasma), the “apparent volume of distribution” value is 10 L, the “time to disappearance from plasma” value is 2 to 2.5 h and the “time to peak concentration in plasma” value was at most 5 min. The half-life (in general, the time in which the quantity being followed falls by half) in series [8] (mouse, ip, plasma) is 1 h. Besides, in [9] (300 mg/kg daily intraperitoneal, 3 months), the “signs of toxicity, gross anatomy of organs” value was “did not find any sign of toxicity; also recorded: no signs of toxicity”. Besides, the “LFT profile, CBC and LDH, creatinine, and urea levels” value in series [9] (blood samples after 3 months daily dosing 300 mg/kg) is reported as “normal range”. In series [10] (setting [14]), the HLTE entry is “prevented HLTE in all the animals” and the “onset of myoclonic seizure” value is given as “significantly delayed”. The seizure scoring result in [10] (300, 400 and 500 mg/Kg, compared to PTZ group (FIG. 1)) is “decreased the number seizure scoring significantly and dose dependently”. Also, the BDNF gene expression result in series [4] (i.p. treatment, vs PTZ alone) is on record as “significantly reduced”. In addition, in [4] (setting [12]), the BDNF gene expression entry is “significantly reduced”.
